Positions count from the first letter of the chain named.
How the values were obtained:
[1] = biological target: T1, wild-type AR (Homo sapiens, UniProt P10275); test: AR transcription, MMTV-Luc reporter in COS-1 cells co-transfected with pSG5-AR; format: cell-based; set-up: expressed in transfected cells; host or cells: COS-1; conditions: COS-1, 1 nM DHT
T1 sequence (P10275 1-920): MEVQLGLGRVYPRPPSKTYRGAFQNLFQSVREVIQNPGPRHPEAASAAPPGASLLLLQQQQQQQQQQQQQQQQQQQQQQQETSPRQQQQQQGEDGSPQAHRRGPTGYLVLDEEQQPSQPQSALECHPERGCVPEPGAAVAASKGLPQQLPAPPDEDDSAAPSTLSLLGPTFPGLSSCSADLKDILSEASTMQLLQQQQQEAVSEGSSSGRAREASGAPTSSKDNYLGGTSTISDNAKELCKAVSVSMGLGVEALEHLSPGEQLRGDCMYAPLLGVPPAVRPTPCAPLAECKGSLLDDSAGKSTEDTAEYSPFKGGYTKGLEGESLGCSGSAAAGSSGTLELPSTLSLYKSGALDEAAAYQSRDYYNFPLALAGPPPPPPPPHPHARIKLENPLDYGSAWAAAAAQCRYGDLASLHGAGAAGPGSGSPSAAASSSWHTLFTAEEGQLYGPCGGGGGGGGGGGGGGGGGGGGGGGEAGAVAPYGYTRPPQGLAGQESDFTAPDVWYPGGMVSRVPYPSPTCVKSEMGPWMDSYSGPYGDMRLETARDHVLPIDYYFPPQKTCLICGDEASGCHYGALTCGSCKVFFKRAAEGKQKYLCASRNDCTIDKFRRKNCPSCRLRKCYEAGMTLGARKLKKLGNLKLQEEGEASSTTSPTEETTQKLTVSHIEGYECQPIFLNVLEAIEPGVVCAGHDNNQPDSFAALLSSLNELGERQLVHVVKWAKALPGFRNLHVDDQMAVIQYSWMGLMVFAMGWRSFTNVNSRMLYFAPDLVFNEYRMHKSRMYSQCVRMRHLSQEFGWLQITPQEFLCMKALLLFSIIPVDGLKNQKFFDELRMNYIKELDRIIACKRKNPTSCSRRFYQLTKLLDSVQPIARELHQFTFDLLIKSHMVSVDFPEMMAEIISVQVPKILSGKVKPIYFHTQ
Protocol: (§1) Cell Culture, Transfection, and Reporter Gene Assay. The human prostate cancer cell lines, LNCaP, PC-3, and DU145, and non-prostate cancer cell line COS-1 were maintained in RPMI or Dulbecco's modified Eagle's medium (DMEM) (Life Technologies) supplemented with 10% fetal bovine serum (FBS). […] Briefly, cells seeded to reach a density of 50-60% confluence in 12 well tissue culture plates were transfected with 1.5 μg of DNA according to “SuperFect transfection” instructions (Qiagen). After 2-3 h incubation, cells were treated with medium supplemented with charcoal-stripped FBS containing either ethanol or ligands for 24 h. The cells were then harvested and whole cell extracts were used for Luc assay. The Luc activity was determined using a Dual-Luciferase Reporter Assay System (Promega) and luminometer.
(§2) The pSG5-AR was co-transfected in COS-1 cells. […] Values were obtained from the mean±SD of at least three determinations. DU145 cells were transfected with the pSG5-AR and MMTV-Luc in the presence or absence of pSG5-ARA70. […] Values were obtained for the mean±SD of at least three determinations.

[2] = biological target: T2, mutant AR (Homo sapiens, UniProt P10275, T878A); test: AR transcription, MMTV-Luc reporter in LNCaP cells; format: cell-based
T2 construct: LNCaP without transfection; endogenous in cells; host or cells: LNCaP
T2 sequence (P10275 1-920 T878A): T1 sequence (P10275 1-920) with T878A
Protocol: as §1, §2

[3] = biological target: T1, wild-type AR; test: Adiol-induced AR transcription, MMTV-Luc in PC-3 cells with pSG5-AR; format: cell-based; set-up: expressed in transfected cells; host or cells: PC-3; conditions: PC-3, 2.5 nM Adiol, compound at 1 μM
Protocol: (§3) Cell Culture, Transfection, and Reporter Gene Assay. The human prostate cancer cell lines, LNCaP, PC-3, and DU145, and non-prostate cancer cell line COS-1 were maintained in RPMI or Dulbecco's modified Eagle's medium (DMEM) (Life Technologies) supplemented with 10% fetal bovine serum (FBS). Transfections and luciferase (Luc) assays were performed as previously described (Miyamoto, H., Yeh, S., Wilding, G. & Chang, C. (1998) Proc. Natl. Acad. Sci. USA 95, 7379-7384; Miyamoto, H., Rahman, M., Takatera, H., Kang, H.-Y., Yeh, S., Chang, H.-C., Nishimura, K., Fujimoto, N. & Chang, C. (2002) J. Biol. Chem. 277, 4609-4617). Briefly, cells seeded to reach a density of 50-60% confluence in 12 well tissue culture plates were transfected with 1.5 μg of DNA according to “SuperFect transfection” instructions (Qiagen). After 2-3 h incubation, cells were treated with medium supplemented with charcoal-stripped FBS containing either ethanol or ligands for 24 h. The cells were then harvested and whole cell extracts were used for Luc assay. The Luc activity was determined using a Dual-Luciferase Reporter Assay System (Promega) and luminometer.
(§4) Effect of ADEK on AR Transcription. […] (set as 100%). Values were obtained from the mean±SD of at least three determinations.

[4] = system: PSA; test: PSA expression in LNCaP cells, Western blot; format: cell-based, human; conditions: 48 h, 1 nM DHT or 1 μM HF, casodex, ADEK in absence of DHT
Protocol: Western Blot. […] An antibody for -actin (Santa Cruz Biotechnology) was used as the internal control. Blots were quantitated by Collage software (Fotodyne).
The 33-kDa protein was quantitated. β-Actin expression was used as an internal control. […] The mean±SD of three separate experiments was determined. […] Total cell number was counted by hemocytometer. The mean of at least three determinations was determined.

[5] = biological target: T3, AR (Homo sapiens, UniProt P10275, T878A); test: Competitive [3H]-R1881 ligand binding assay, LNCaP whole cell extracts; conditions: 1 nM [3H]-R1881, unlabeled ligand 1-10,000 nM, relative to DHT
T3 construct: LNCaP without transfection; endogenous in cells; host or cells: LNCaP
T3 sequence (P10275 1-920 T878A): T1 sequence (P10275 1-920) with T878A
Protocol: (§5) Ligand Binding Assay. Whole cell extracts from COS-1 with transient transfection of pSG5-AR, or LNCaP without transfection, were incubated for 2 h at 37° C. with 1 nM [^3H]-synthetic androgen methyltrienolone (R1881) in the presence and absence of increasing concentrations (1-10,000 nM) of unlabeled ligands. Then, hydroxyapatite (Bio-Rad) was added and stirred for 15 min at 4° C. After centrifugation and washing, radioactivity was determined by scintillation counting.
(§6) Clinically available antiandrogens have an affinity for the AR, allowing a competition with androgens for binding. To determine whether ADEK has this common feature of AR antagonists, the competitive androgen binding assay was performed.

[6] = biological target: T1, wild-type AR; test: Competitive [3H]-R1881 ligand binding assay, extracts of COS-1 transfected with wild-type AR; set-up: expressed in transfected cells; host or cells: COS-1; conditions: 1 nM [3H]-R1881, unlabeled ligand 1-10,000 nM, relative to DHT
Protocol: as §5, §6

[7] = biological target: T3, AR; test: Adiol-induced AR transcription, MMTV-Luc in LNCaP cells; format: cell-based; conditions: 2.5 nM Adiol, compound at 1 μM
Protocol: as §3, §4

- suppression of DHT-induced wild-type AR transcription compared with ADEK at 1 μM (21%), in words [1]: similar
- suppression of DHT-induced mutant AR transcription (in words) ([2]; 10 μM): no suppression
- agonist / androgenic activity on mutant AR transcription (in words) ([2]; MMTV-Luc, HF at 10 μM): full agonist
- block of Adiol-induced AR transcription (in words) [3]: failed to significantly block
- RBA in LNCaP [5]: 23.0
- RBA in COS-1 with AR [6]: 17.1
- block of Adiol-induced AR transcription (in words) [7]: failed to significantly block
SMILES: CC(C)(O)C(=O)Nc1ccc([N+](=O)[O-])c(C(F)(F)F)c1 [HF, hydroxyflutamide, reference compound]
- endogenous PSA expression over mock treatment [4]: 3.5 fold

Source: US7638509B2, “Diene compounds and formulations” (priority 2003, dated 2009)
